# Measurements: patent publication US7989628B2, “2-aminoquinolines” (Hoffmann-La Roche Inc., priority 2008, dated 2011)
# Target: T1, recombinant human 5-HT5A receptor (Homo sapiens, UniProt P47898)
# T1 construct: expressed in transfected cells; host or cells: HEK-EBNA (Human Embryonic Kidney-EBNA) cells, transient cDNA expression; membranes
# Assay: [3H]LSD radioligand binding assay
# Conditions: [3H]LSD approx. 1 nM; membranes from HEK-EBNA cells transiently expressing 5-HT5A; Ki by Cheng-Prussoff equation
# Method: A [^3H]LSD radioligand binding assay was used to determine the affinity of the compounds for the recombinant human 5-HT5A receptor, in membranes from transiently (cDNA) expressed 5-HT5A receptors in Human Embryonic Kidney-EBNA (HEK-EBNA) cells. Assay buffer consisted of Tris (50 mM) buffer containing 1 mM EGTA, 10 mM MgCl2 (pH 7.4) and 10 μM pargyline. The binding assay was carried out in 96-well-plates in the presence of [^3H]LSD (approximately 1 nM), approximately 2 μg/well of membrane protein, and 0.5 mg of Ysi-poly-1-lysine SPA beads in a final volume of 200 μl of buffer. Non-specific binding was defined using methiothepin 2 μM. Compounds were tested at 10 concentrations. All assays were conducted in duplicate and repeated at least two times. Assay plates were incubated for 120 min at room temperature before centrifugation. Bound ligand was determined using a Packard Topcount scintillation counter. IC50 values were calculated using a non-linear curve fitting program and Ki values calculated using the Cheng-Prussoff equation.
# T1 sequence (P47898 whole entry): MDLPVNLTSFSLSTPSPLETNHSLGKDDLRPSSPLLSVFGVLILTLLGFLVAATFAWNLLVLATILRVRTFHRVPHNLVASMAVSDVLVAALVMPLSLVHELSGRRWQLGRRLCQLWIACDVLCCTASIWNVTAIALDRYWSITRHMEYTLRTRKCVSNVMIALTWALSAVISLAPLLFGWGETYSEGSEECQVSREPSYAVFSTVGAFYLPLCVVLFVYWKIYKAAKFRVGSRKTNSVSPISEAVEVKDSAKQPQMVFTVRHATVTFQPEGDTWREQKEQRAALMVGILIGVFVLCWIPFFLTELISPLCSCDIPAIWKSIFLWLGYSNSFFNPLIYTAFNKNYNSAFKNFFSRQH
row,SMILES,Ki [nM]
1,"COc1ccccc1CNc1ccc2c(N)cccc2n1 [Example 1, N^2-(2-Methoxy-benzyl)-quinoline-2,5-diamine]",27.3
2,"Cc1ccc(CNc2ccc3c(N)cccc3n2)o1 [Example 2, N^2-(5-Methyl-furan-2-ylmethyl)-quinoline-2,5-diamine]",83.8
3,"Cc1ccc(CNc2ccc3c(NC4CCOCC4)cccc3n2)o1 [Example 7, N^2-(5-Methyl-furan-2-ylmethyl)-N^5-(tetrahydro-pyran-4-yl)-quinoline-2,5-diamine]",92
4,"CSCCNc1cccc2nc(NCc3ccc(C)o3)ccc12 [Example 9, N^2-(5-Methyl-furan-2-ylmethyl)-N^5-(2-methylsulfanyl-ethyl)-quinoline-2,5-diamine]",81.2
5,"Cc1ccc(CNc2ccc3c(NCC[S+](C)[O-])cccc3n2)o1 (stereo not shown) [Example 10, N^5-(2-Methanesulfinyl-ethyl)-N^2-(5-methyl-furan-2-ylmethyl)-quinoline-2,5-diamine]",99.3
6,"Nc1cccc2nc(NCc3ccccc3OC(F)(F)F)ccc12 [Example 13, N^2-(2-Trifluoromethoxy-benzyl)-quinoline-2,5-diamine]",93.9
7,"Cc1cc2cccc(Nc3ccc4c(N)cccc4n3)c2o1 [Example 14, N^2-(2-Methyl-benzofuran-7-yl)-quinoline-2,5-diamine]",112
8,"CC1Cc2cccc(Nc3ccc4c(N)cccc4n3)c2O1 (stereo not shown) [Example 15, N^2-(2-Methyl-2,3-dihydro-benzofuran-7-yl)-quinoline-2,5-diamine]",49.4
9,"CC1(C)Cc2cccc(Nc3ccc4c(N)cccc4n3)c2O1 [Example 16, N^2-(2,2-Dimethyl-2,3-dihydro-benzofuran-7-yl)-quinoline-2,5-diamine]",44.4
10,"Nc1cccc2nc(Nc3cccc(C4CC4)c3)ccc12 [Example 18, N^2-(3-Cyclopropyl-phenyl)-quinoline-2,5-diamine]",71.2
11,"Cc1ccc(CNc2ccc3c(NS(=O)(=O)N(C)C)cccc3n2)o1 [Example 20, N,N-dimethyl-N′-(2-{[(5-methyl-2-furyl)methyl]amino}quinolin-5-yl)sulfamide]",60.4
12,"CC1Cc2cccc(Nc3ccc4c(NS(=O)(=O)N(C)C)cccc4n3)c2O1 (stereo not shown) [Example 21, N,N-dimethyl-N′-{2-[(2-methyl-2,3-dihydro-1-benzofuran-7-yl)amino]quinolin-5-yl}sulfamide]",101
13,"Cc1ccc(CNc2ccc3c(CCCCO)cccc3n2)o1 [Example 26, 4-{2-[(5-Methyl-furan-2-ylmethyl)-amino]-quinolin-5-yl}-butan-1-ol]",61.8
14,"COc1ccccc1CNc1ccc2c(OCCSC)cccc2n1 [Example 30, (2-Methoxy-benzyl)-[5-(2-methylsulfanyl-ethoxy)-quinolin-2-yl]-amine]",219
15,"COc1ccccc1CNc1ccc2c(C(=N)NO)cccc2n1 [Example 32, N-Hydroxy-2-(2-methoxy-benzylamino)-quinoline-5-carboxamidine]",44.7

# System: not given
# Assay: not given
# Conditions: not given
row,SMILES,melting point [°C]
1,"COc1ccccc1CNc1ccc2c(C(=N)NO)cccc2n1 [Example 32, N-Hydroxy-2-(2-methoxy-benzylamino)-quinoline-5-carboxamidine]",161
